Species on record: Rattus norvegicus
Experiment: Open TG-GATES - Regimen: Single
Assay type: toxicity, organism-based, Sprague-Dawley
Parameters: regimen Single, gender Male, age 6 weeks
Settings: in vivo, po, 1000 mg/kg, route gavage, dose level High; for APTT / Bas / Eos / Fbg / Hb / Ht / Lym / MCH / MCHC / MCV / Mono / Neu / PT / Plat / RBC / Ret / WBC: tissue Blood; for KIDNEY_L / KIDNEY_R / KIDNEY_TOTAL: tissue Kidney; for LIVER: tissue Liver; for A/G / ALP / ALT / AST / BUN / CRE / Ca / Cl / DBIL / GLC / IP / K / LDH / Na / PL / RALB / TBIL / TC / TG / TP / gamma-GTP: tissue Plasma

## CCc1cc(C(N)=S)ccn1 [ETHIONAMIDE]
3 h
  TERMINAL_BW: 227.9 g
  APTT: 17.7 s
  Bas: 0%
  Eos: 1%
  Fbg: 212.6 mg/dL
  Hb: 13.7 g/dL
  Ht: 40.6%
  Lym: 70.8%
  MCH: 21.4 pg
  MCHC: 33.8%
  MCV: 63.5 fL
  Mono: 8.4%
  Neu: 19.8%
  PT: 12.4 s
  Plat: 112.8 x10_4/uL
  RBC: 640 x10_4/ul
  Ret: 7.9%
  WBC: 62.9 x10_2/uL
  KIDNEY_L: 1 g
  KIDNEY_R: 1 g
  KIDNEY_TOTAL: 2 g
  LIVER: 11.1 g
  A/G: 1.9
  ALP: 715 IU/L
  ALT: 33.6 IU/L
  AST: 69 IU/L
  BUN: 13.4 mg/dL
  CRE: 0.5 mg/dL
  Ca: 11 mg/dL
  Cl: 100 meq/L
  DBIL: 0.014 mg/dL
  GLC: 202.8 mg/dL
  IP: 9.1 mg/dL
  K: 4 meq/L
  LDH: 106.4 IU/L
  Na: 139.2 meq/L
  PL: 130.4 mg/dL
  RALB: 3.7 g/dL
  TBIL: 0.4 mg/dL
  TC: 78.6 mg/dL
  TG: 46 mg/dL
  TP: 5.7 g/dL
  gamma-GTP: 1.2 IU/L
6 h
  TERMINAL_BW: 227.1 g
  APTT: 18.3 s
  Bas: 0%
  Eos: 0.8%
  Fbg: 209.2 mg/dL
  Hb: 14.4 g/dL
  Ht: 43.1%
  Lym: 75.6%
  MCH: 21.9 pg
  MCHC: 33.5%
  MCV: 65.3 fL
  Mono: 7.6%
  Neu: 16%
  PT: 13.8 s
  Plat: 118.7 x10_4/uL
  RBC: 659.2 x10_4/ul
  Ret: 7.9%
  WBC: 98.1 x10_2/uL
  KIDNEY_L: 1 g
  KIDNEY_R: 1 g
  KIDNEY_TOTAL: 2 g
  LIVER: 10.4 g
  A/G: 1.8
  ALP: 679 IU/L
  ALT: 33.8 IU/L
  AST: 74.8 IU/L
  BUN: 16 mg/dL
  CRE: 0.5 mg/dL
  Ca: 10.9 mg/dL
  Cl: 102.8 meq/L
  DBIL: 0.004 mg/dL
  GLC: 192.4 mg/dL
  IP: 9.4 mg/dL
  K: 4 meq/L
  LDH: 119.2 IU/L
  Na: 139.2 meq/L
  PL: 111.8 mg/dL
  RALB: 3.6 g/dL
  TBIL: 0.5 mg/dL
  TC: 62.4 mg/dL
  TG: 17.8 mg/dL
  TP: 5.6 g/dL
  gamma-GTP: 1.2 IU/L
9 h
  TERMINAL_BW: 224.3 g
  APTT: 18.3 s
  Bas: 0%
  Eos: 1.2%
  Fbg: 209 mg/dL
  Hb: 14 g/dL
  Ht: 41.3%
  Lym: 73.8%
  MCH: 21.2 pg
  MCHC: 33.8%
  MCV: 62.8 fL
  Mono: 8.4%
  Neu: 16.8%
  PT: 14.6 s
  Plat: 121.3 x10_4/uL
  RBC: 657 x10_4/ul
  Ret: 7.5%
  WBC: 77.3 x10_2/uL
  KIDNEY_L: 1 g
  KIDNEY_R: 1 g
  KIDNEY_TOTAL: 2 g
  LIVER: 9.7 g
  A/G: 1.9
  ALP: 641 IU/L
  ALT: 36.2 IU/L
  AST: 75.2 IU/L
  BUN: 16.4 mg/dL
  CRE: 0.5 mg/dL
  Ca: 10.6 mg/dL
  Cl: 104.6 meq/L
  DBIL: 0.018 mg/dL
  GLC: 202 mg/dL
  IP: 9.6 mg/dL
  K: 4.3 meq/L
  LDH: 99 IU/L
  Na: 140.6 meq/L
  PL: 107.8 mg/dL
  RALB: 3.5 g/dL
  TBIL: 0.4 mg/dL
  TC: 59.4 mg/dL
  TG: 14.8 mg/dL
  TP: 5.3 g/dL
  gamma-GTP: 1.2 IU/L
24 h
  TERMINAL_BW: 219.4 g
  APTT: 18.9 s
  Bas: 0%
  Eos: 1.6%
  Fbg: 186.4 mg/dL
  Hb: 15.3 g/dL
  Ht: 45.1%
  Lym: 62.2%
  MCH: 22.2 pg
  MCHC: 34%
  MCV: 65.3 fL
  Mono: 7.8%
  Neu: 28.2%
  PT: 15.4 s
  Plat: 118 x10_4/uL
  RBC: 691.2 x10_4/ul
  Ret: 8.3%
  WBC: 63.3 x10_2/uL
  KIDNEY_L: 1 g
  KIDNEY_R: 1 g
  KIDNEY_TOTAL: 2 g
  LIVER: 10.1 g
  A/G: 2
  ALP: 839.2 IU/L
  ALT: 36.6 IU/L
  AST: 68.6 IU/L
  BUN: 13 mg/dL
  CRE: 0.6 mg/dL
  Ca: 10.3 mg/dL
  Cl: 102.2 meq/L
  DBIL: 0.054 mg/dL
  GLC: 228.8 mg/dL
  IP: 8.3 mg/dL
  K: 3.9 meq/L
  LDH: 87.6 IU/L
  Na: 140.8 meq/L
  PL: 86.6 mg/dL
  RALB: 3.6 g/dL
  TBIL: 0.4 mg/dL
  TC: 41.4 mg/dL
  TG: 41.8 mg/dL
  TP: 5.3 g/dL
  gamma-GTP: 0.4 IU/L

Source: ChEMBL document CHEMBL3885861, “Open TG-GATES”
